Laboratory results as given in BindingDB's records for patent US20230295182 (Idorsia Pharmaceuticals, 2023).
pIC50: −log10 of the molar value.

molecular target: Galectin-3 (Homo sapiens, UniProt P17931); test: Evaluation of Compound Inhibitory Activity (IC50)
Experimental: Briefly, compounds are serially diluted in DMSO (working dilutions). ASF-coated 384 well plates are supplemented with 22.8 uL/well of biotinylated hGal-3 or hGal-1 in assay buffer (i.e. 300-1000 ng/mL biotinylated hGal-3 or hGal-1) to which 1.2 uL of compound working dilutions are added and mixed. Plates are incubated for 3 hours at 4 C., then washed with cold assay buffer (3x50 uL), incubated for 1 hour with 25 uL/well of a streptavidin-peroxidase solution (diluted in assay buffer to 80 ng/mL) at 4 C., followed by further washing steps with assay buffer (3x50 uL). Finally, 25 µL/well of ABTS substrate is added.

Chain of Galectin-3 (P17931 whole entry): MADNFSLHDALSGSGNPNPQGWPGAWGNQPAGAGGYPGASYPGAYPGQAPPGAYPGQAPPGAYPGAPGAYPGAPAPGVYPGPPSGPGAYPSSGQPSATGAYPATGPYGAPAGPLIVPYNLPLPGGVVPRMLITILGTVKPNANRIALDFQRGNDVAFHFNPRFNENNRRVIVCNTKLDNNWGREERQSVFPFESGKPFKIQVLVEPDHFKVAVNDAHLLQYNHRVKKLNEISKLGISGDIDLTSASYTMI

Row | pIC50 | SMILES
1 | 6.64 | OC[C@H]1O[C@H](CC2=NOC3(CCCCC3)C2)[C@H](OCC(F)F)[C@@H](n2cc(-c3cc(F)c(F)c(F)c3)nn2)[C@H]1O [US20230295182, Example 1.67]
2 | 7.34 | CO[C@@H]1[C@@H](n2cc(-c3ccc(C)c(F)c3F)nn2)[C@@H](O)[C@@H](CO)O[C@@H]1CN1CC2(CCCCC2)NC1=O [US20230295182, Example 4.01]
3 | 6.30 | CO[C@@H]1[C@@H](n2cc(-c3cc(F)c(F)c(F)c3)nn2)[C@@H](O)[C@@H](CO)O[C@@H]1CC1=NOC2(CCC(C)CC2)C1 (stereo partly drawn) [US20230295182, Example 1.30]
